Measurements from patent publication US7390783B2, “Charged phospholipid compositions and methods for their use” (Ottawa Heart Institute Research Corporation, priority 2000, dated 2008).

Assays:
[1] = biological target: T1, lipoprotein lipase (Homo sapiens, UniProt P06858); test: Lipid hydrolysis by lipoprotein lipase in plasma enriched with charged lipid; format: biochemical; settings: not shown
T1 sequence (P06858 28-475): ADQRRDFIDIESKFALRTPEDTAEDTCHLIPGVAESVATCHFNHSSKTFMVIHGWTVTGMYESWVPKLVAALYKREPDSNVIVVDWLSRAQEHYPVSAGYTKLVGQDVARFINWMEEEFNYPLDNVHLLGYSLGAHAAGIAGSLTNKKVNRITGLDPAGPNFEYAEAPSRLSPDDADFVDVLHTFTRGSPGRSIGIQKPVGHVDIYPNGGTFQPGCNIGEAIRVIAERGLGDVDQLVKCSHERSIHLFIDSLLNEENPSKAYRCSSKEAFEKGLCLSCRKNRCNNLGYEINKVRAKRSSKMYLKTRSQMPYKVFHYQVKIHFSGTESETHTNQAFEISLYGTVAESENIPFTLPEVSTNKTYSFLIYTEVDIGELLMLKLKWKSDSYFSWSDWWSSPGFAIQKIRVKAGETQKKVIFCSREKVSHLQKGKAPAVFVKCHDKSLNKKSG
Text: Referring now to FIG. 10, there is shown the effect of lipoprotein charge on hepatic lipase. High density lipoprotein particles were enriched to contain various amounts of anionic or cationic lipids and then characterized as substrates for pure human hepatic lipase. Decreasing the net negative charge on the lipoprotein was associated with a reduction in the lipolytic activity of is hepatic lipase. Lipoprotein charge can also be used to regulate lipoprotein lipase. […] Lipid hydrolysis by hepatic or lipoprotein lipase can therefore be affected by alterations in the charge properties of plasma lipoproteins.

[2] = biological target: T2, lecithin:cholesterol acyltransferase (LCAT) (Oryctolagus cuniculus, UniProt P53761); test: Plasma cholesterol esterification by LCAT after injection of PC or PI; format: in vivo, rabbit
T2 construct: endogenous LCAT activity is reduced to about 18% that of normal; from tissue; host or cells: plasma of PI- or PC-injected rabbits
T2 sequence (P53761 25-440): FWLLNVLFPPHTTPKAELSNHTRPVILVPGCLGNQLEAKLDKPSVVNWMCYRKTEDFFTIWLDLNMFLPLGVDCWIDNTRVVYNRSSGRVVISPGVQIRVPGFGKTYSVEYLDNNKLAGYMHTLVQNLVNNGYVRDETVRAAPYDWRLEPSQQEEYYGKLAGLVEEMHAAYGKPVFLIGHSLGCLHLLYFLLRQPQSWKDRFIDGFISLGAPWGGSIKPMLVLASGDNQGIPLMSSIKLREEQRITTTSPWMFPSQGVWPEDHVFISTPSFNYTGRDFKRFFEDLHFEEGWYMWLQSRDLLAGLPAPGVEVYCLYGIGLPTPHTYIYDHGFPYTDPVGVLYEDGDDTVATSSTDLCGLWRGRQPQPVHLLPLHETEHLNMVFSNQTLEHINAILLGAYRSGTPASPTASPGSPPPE
Description: Male New Zealand white rabbits (3.5-4.0 kg) are fasted for 12 hours prior to injection and remain fasted until after data for the final time point is taken. Rabbits have free access to water during this time. A catheter is inserted into the marginal ear vein and blood samples are collected into tubes containing 7.5% (K3) EDTA solution at the desired time points. A pre-injection blood sample is taken and the vesicle solution of either PI (n=4), or PC (n=2) or saline (n=1) is injected into the marginal ear vein. A sample of blood is removed at 10, 30 min, 1, 3, 6 and 24 h after the injection. All blood samples are placed on ice and then centrifuged at 3000 rpm for 15 min at 4° C. to separate the plasma. In order to ensure that lecithin:cholesterol acyl transferase (LCAT) is inhibited in the stored plasma, iodoacetamide (150 mM) is added to plasma samples as taught by Guerin et al. (1994). The effect of PI on LCAT activity is examined using plasma samples that are not treated with iodoacetamide. 400 μL aliquots of plasma for each time point are incubated for 30 min with 10 μCi of [^3H]-FC on filter paper discs (Dobiasova et al., 1991) at 37° C. and the reaction is terminated with the addition of 2 mL ethanol. Reaction products are extracted in hexane and the amount of [^3H] associated with CE and FC is determined by thin layer chromatography. […] However, endogenous LCAT activity is reduced to about 18% that of normal (PC injected control) after about 10 min post injection of PI. Also, PI injection reduces the fractional rate of cholesterol esterification from about 45% to about 8%, of initial values, per hour. […] To investigate the effect of PI on the production and transport of CE in the plasma, the amount of radioactive CE was measured at each time point (data not shown). […] Rather it appears that PI may modify intravascular cholesterol levels by mobilizing a cellular cholesterol pool.

[3] = system: cytomegalovirus (CMV); test: Clearance of cytomegalovirus from the plasma of a rabbit; format: in vivo; settings: 36 mg vesicles; blood sample 10 minutes post injection
Description: Rabbits were injected with 8×10^10 cytomegalovirus (CMV) particles and then with 36 mg of either uncharged vesicles, phosphatidylcholine (PC), or anionic vesicles, phosphatidylinositol (PI). Blood samples were taken at specific intervals and the amount of virus in the blood samples was determined by immunometric analysis.

CCCCCCCC/C=C\CCCCCCCC(=O)O[C@H](COC(=O)CCCCCCCCCCCCCCC)COP(=O)(O)O[C@@H]1[C@H](O)[C@H](O)[C@@H](O)[C@H](O)[C@H]1O [PI, 1-palmitoyl-2-oleoyl phosphatidylinositol]
effect on lipid hydrolysis by lipoprotein lipase [1]: stimulate lipid hydrolysis | endogenous LCAT activity, of normal (PC injected control) ([2]; about 10 min post injection): about 18% | LCAT activity returned to, of normal ([2]; after a period of time following vesicle injection): about 75% | effect on LCAT activity / cholesteryl esterification ([2]; after injection of vesicles): almost completely inhibits | less [3H]-CE in plasma than in the control ([2]; initial time points, vs PC injected rabbit): 85% | fractional rate of cholesterol esterification ([2]; of initial values, per hour, reduced from about 45%): about 8% | increased rate of clearance of the CMV injectate relative to PC [3]: 1.7 fold
